Earlier results in patent publication US20110071172A1, “SUBSTITUTED QUINAZOLINES AS BLOOD PLATELET LOWERING AGENTS” (Shire LLC, priority 2008, published 2011).

Key:
[1] = tested on: human megakaryocytopoiesis
[2] = tested on: human phosphodiesterase 111 (PDE III); details: for IC50: read-out: IC50, PDE III inhibition
[3] = tested on: erythroid or myelomonocytic differentiation; details: stimulated by erythropoietin or granulocyte-macrophage colony-stimulating factor

SMILES	potency in inhibition of megakaryocytopoiesis relative to parent drug ([1]; versus anagrelide)	potency as PDE III inhibitor relative to anagrelide ([2]; ratio versus anagrelide)	half-life (typical) [h]	exposure in vivo relative to parent drug (typical exposures versus anagrelide)	IC50 ([1]; estimated, in vitro, dose-dependent, read-out: IC50, inhibition of TPO-induced megakaryocytopoiesis) [nM]	IC50 [2] [nM]	effect on erythroid or myelomonocytic differentiation [3]	first pass effect (in vivo) [%]
O=C1NC2=Nc3ccc(Cl)c(Cl)c3CN2C1O (stereo not drawn) [3-hydroxyanagrelide]	no more potent than the parent drug	over 40 fold	2.5	2-3 fold	–	–	–	–
O=C1CN2Cc3c(ccc(Cl)c3Cl)N=C2N1 [Anagrelide, 6,7-dichloro-1,5-dihydroimidazo[2,1-b]-quinazolin-2(3H)-one]	–	–	–	–	~26	~29	does not affect	> 50
Cc1[nH]c(=O)c(C#N)cc1-c1ccncc1 [milrinone]	–	–	–	–	–	170 to 350	–	–
